Values of other authors, collected in US7128928B2, “Ophthalmic formulation with novel gum composition” (Pharmacia Corporation, priority 2002, dated 2006).

Test system: infective gram-positive bacteria

In the case of CC(=O)NC[C@H]1CN(c2ccc(N3CCOCC3)c(F)c2)C(=O)O1 [linezolid], the MIC90 is given as “about 4 μg/ml”.
